Legend:
Assay in all cases: post-emergence herbicidal activity, greenhouse
Type in all cases: in vivo
Common Lambsquarters = tested on: Common Lambsquarters
Summary of the method: (§1)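 The readout is plant injury compared with untreated pans, taken at two time points, about two and four weeks after spraying. Plants had grown two to three weeks in greenhouse topsoil pans before atomizer treatment.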

Hemp Sesbania = details: Table III
Summary of the method: as §1

Johnsongrass = details: Table II
Summary of the method: as §1

Large Crabgrass = details: Table III
Summary of the method: as §1

Panicum Spp = details: Table III
Summary of the method: as §1

Quackgrass = details: Table II
Summary of the method: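 After sowing in soil-filled pans and growing under greenhouse conditions, plants at two to three weeks were sprayed post-emergence with the test compound in a formulation containing approximately 0.4% emulsifier by weight. Observations of plant injury, relative to controls, followed at about two and four weeks.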

[1] = 2 WAT, 1.1 kg/h, formulated in anhydrous tetrahydrofuran
[2] = 2 WAT, 5.6 kg/h, formulated in anhydrous tetrahydrofuran
[3] = 2 WAT, .28 kg/h, formulated in anhydrous tetrahydrofuran
[4] = 4 WAT, 1.1 kg/h, formulated in anhydrous tetrahydrofuran
[5] = 4 WAT, 5.6 kg/h, formulated in anhydrous tetrahydrofuran
[6] = 4 WAT, .28 kg/h, formulated in anhydrous tetrahydrofuran
[7] = 2 WAT, 11.2 kg/h, formulated in anhydrous tetrahydrofuran
[8] = 4 WAT, 11.2 kg/h, formulated in anhydrous tetrahydrofuran

CCOC(=O)CNCP(=O)(O)O[Si](c1ccccc1)(c1ccccc1)C(C)(C)C [Ex. 7, Glycine, N--((([(1,1-Dimethylethyl)Diphenylsilyl]Oxy)Hydroxyphosphinyl)Methyl)-,Ethyl Ester]
Plant Response Index (E) (Common Lambsquarters; Table II, 2 WAT, 5.6 kg/h): 3 (75-99% inhibition)
Plant Response Index (E) (Common Lambsquarters; Table II, 2 WAT, 5.6 kg/h, formulated in anhydrous tetrahydrofuran): 3 (75-99% inhibition)
Plant Response Index (E) (Common Lambsquarters; Table II, 2 WAT, 11.2 kg/h): 4 (100% inhibition)
Plant Response Index (E) (Common Lambsquarters; Table II, 2 WAT, 11.2 kg/h, formulated in anhydrous tetrahydrofuran): 4 (100% inhibition)
Plant Response Index (E) (Common Lambsquarters; Table II, 4 WAT, 5.6 kg/h): 3 (75-99% inhibition)
Plant Response Index (E) (Common Lambsquarters; Table II, 4 WAT, 5.6 kg/h, formulated in anhydrous tetrahydrofuran): 3 (75-99% inhibition)
Plant Response Index (E) (Common Lambsquarters; Table II, 4 WAT, 11.2 kg/h): 4 (100% inhibition)
Plant Response Index (E) (Common Lambsquarters; Table II, 4 WAT, 11.2 kg/h, formulated in anhydrous tetrahydrofuran): 4 (100% inhibition)
Plant Response Index (E) (Common Lambsquarters; Table III, 2 WAT, 1.1 kg/h): 4 (100% inhibition)
Plant Response Index (E) (Common Lambsquarters; Table III, 2 WAT, 1.1 kg/h, formulated in anhydrous tetrahydrofuran): 4 (100% inhibition)
Plant Response Index (E) (Common Lambsquarters; Table III, 2 WAT, 5.6 kg/h): 3 (75-99% inhibition)
Plant Response Index (E) (Common Lambsquarters; Table III, 2 WAT, 5.6 kg/h, formulated in anhydrous tetrahydrofuran): 4 (100% inhibition)
Plant Response Index (E) (Common Lambsquarters; Table III, 2 WAT, .28 kg/h): 3 (75-99% inhibition)
Plant Response Index (E) (Common Lambsquarters; Table III, 2 WAT, .28 kg/h, formulated in anhydrous tetrahydrofuran): 2 (50-74% inhibition)
Plant Response Index (E) (Common Lambsquarters; Table III, 4 WAT, 1.1 kg/h): 4 (100% inhibition)
Plant Response Index (E) (Common Lambsquarters; Table III, 4 WAT, 1.1 kg/h, formulated in anhydrous tetrahydrofuran): 4 (100% inhibition)
Plant Response Index (E) (Common Lambsquarters; Table III, 4 WAT, 5.6 kg/h): 3 (75-99% inhibition)
Plant Response Index (E) (Common Lambsquarters; Table III, 4 WAT, 5.6 kg/h, formulated in anhydrous tetrahydrofuran): 4 (100% inhibition)
Plant Response Index (E) (Common Lambsquarters; Table III, 4 WAT, .28 kg/h): 3 (75-99% inhibition)
Plant Response Index (E) (Common Lambsquarters; Table III, 4 WAT, .28 kg/h, formulated in anhydrous tetrahydrofuran): 3 (75-99% inhibition)
Plant Response Index (R) (Hemp Sesbania; 2 WAT, 1.1 kg/h): 3 (75-99% inhibition)
Plant Response Index (R) (Hemp Sesbania; [1]): 2 (50-74% inhibition)
Plant Response Index (R) (Hemp Sesbania; 2 WAT, 5.6 kg/h): 1 (25-49% inhibition)
Plant Response Index (R) (Hemp Sesbania; [2]): 1 (25-49% inhibition)
Plant Response Index (R) (Hemp Sesbania; 2 WAT, .28 kg/h): 1 (25-49% inhibition)
Plant Response Index (R) (Hemp Sesbania; [3]): 0 (0-24% inhibition)
Plant Response Index (R) (Hemp Sesbania; 4 WAT, 1.1 kg/h): 4 (100% inhibition)
Plant Response Index (R) (Hemp Sesbania; [4]): 2 (50-74% inhibition)
Plant Response Index (R) (Hemp Sesbania; 4 WAT, 5.6 kg/h): 2 (50-74% inhibition)
Plant Response Index (R) (Hemp Sesbania; [5]): 1 (25-49% inhibition)
Plant Response Index (R) (Hemp Sesbania; 4 WAT, .28 kg/h): 1 (25-49% inhibition)
Plant Response Index (R) (Hemp Sesbania; [6]): 0 (0-24% inhibition)
Plant Response Index (I) (Johnsongrass; 2 WAT, 5.6 kg/h): 3 (75-99% inhibition)
Plant Response Index (I) (Johnsongrass; [2]): 0 (0-24% inhibition)
Plant Response Index (I) (Johnsongrass; 2 WAT, 11.2 kg/h): 4 (100% inhibition)
Plant Response Index (I) (Johnsongrass; [7]): 0 (0-24% inhibition)
Plant Response Index (I) (Johnsongrass; 4 WAT, 5.6 kg/h): 4 (100% inhibition)
Plant Response Index (I) (Johnsongrass; [5]): 2 (50-74% inhibition)
Plant Response Index (I) (Johnsongrass; 4 WAT, 11.2 kg/h): 4 (100% inhibition)
Plant Response Index (I) (Johnsongrass; [8]): 1 (25-49% inhibition)
Plant Response Index (T) (Large Crabgrass; 2 WAT, 1.1 kg/h): 4 (100% inhibition)
Plant Response Index (T) (Large Crabgrass; [1]): 3 (75-99% inhibition)
Plant Response Index (T) (Large Crabgrass; [2]): 3 (75-99% inhibition)
Plant Response Index (T) (Large Crabgrass; [3]): 2 (50-74% inhibition)
Plant Response Index (T) (Large Crabgrass; 4 WAT, 1.1 kg/h): 4 (100% inhibition)
Plant Response Index (T) (Large Crabgrass; [4]): 3 (75-99% inhibition)
Plant Response Index (T) (Large Crabgrass; [5]): 3 (75-99% inhibition)
Plant Response Index (T) (Large Crabgrass; [6]): 2 (50-74% inhibition)
Plant Response Index (S) (Panicum Spp; 2 WAT, 1.1 kg/h): 4 (100% inhibition)
Plant Response Index (S) (Panicum Spp; [1]): 2 (50-74% inhibition)
Plant Response Index (S) (Panicum Spp; 2 WAT, 5.6 kg/h): 3 (75-99% inhibition)
Plant Response Index (S) (Panicum Spp; [2]): 4 (100% inhibition)
Plant Response Index (S) (Panicum Spp; 2 WAT, .28 kg/h): 3 (75-99% inhibition)
Plant Response Index (S) (Panicum Spp; [3]): 1 (25-49% inhibition)
Plant Response Index (S) (Panicum Spp; 4 WAT, 1.1 kg/h): 4 (100% inhibition)
Plant Response Index (S) (Panicum Spp; [4]): 2 (50-74% inhibition)
Plant Response Index (S) (Panicum Spp; 4 WAT, 5.6 kg/h): 4 (100% inhibition)
Plant Response Index (S) (Panicum Spp; [5]): 4 (100% inhibition)
Plant Response Index (S) (Panicum Spp; 4 WAT, .28 kg/h): 3 (75-99% inhibition)
Plant Response Index (S) (Panicum Spp; [6]): 1 (25-49% inhibition)
Plant Response Index (H) (Quackgrass; 2 WAT, 5.6 kg/h): 1 (25-49% inhibition)
Plant Response Index (H) (Quackgrass; [2]): 1 (25-49% inhibition)
Plant Response Index (H) (Quackgrass; 2 WAT, 11.2 kg/h): 2 (50-74% inhibition)
Plant Response Index (H) (Quackgrass; [7]): 1 (25-49% inhibition)
Plant Response Index (H) (Quackgrass; 4 WAT, 5.6 kg/h): 4 (100% inhibition)
Plant Response Index (H) (Quackgrass; [5]): 2 (50-74% inhibition)
Plant Response Index (H) (Quackgrass; 4 WAT, 11.2 kg/h): 3 (75-99% inhibition)
Plant Response Index (H) (Quackgrass; [8]): 2 (50-74% inhibition)

Source: US4471131A, “Novel silyl esters of N-phosphonomethylglycine” (Monsanto Company, priority 1983, dated 1984)
